Laboratory results taken from PubChem BioAssay (NCI).
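Cultured in 96-well plates, cells were exposed to test compound for 48 hours across five concentrations. TGI: total growth inhibition.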

Columns and labels:
Experiment in all cases: NCI-60 cell line screen, 48 h
786-0 renal = system: 786-0 renal
A498 renal = system: A498 renal
A549 NSCLC = system: A549 NSCLC
ACHN renal = system: ACHN renal
CAKI-1 renal = system: CAKI-1 renal
CCRF-CEM leukemia = system: CCRF-CEM leukemia
COLO 205 colon = system: COLO 205 colon
DLD-1 colon = system: DLD-1 colon
DMS 114 small cell lung = system: DMS 114 small cell lung
DMS 273 small cell lung = system: DMS 273 small cell lung
EKVX NSCLC = system: EKVX NSCLC
HCC-2998 colon = system: HCC-2998 colon
HCT-116 colon = system: HCT-116 colon
HCT-15 colon = system: HCT-15 colon
HL-60(TB) leukemia = system: HL-60(TB) leukemia
HOP-18 NSCLC = system: HOP-18 NSCLC
HOP-62 NSCLC = system: HOP-62 NSCLC
HOP-92 NSCLC = system: HOP-92 NSCLC
HT29 colon = system: HT29 colon
IGROV1 ovarian = system: IGROV1 ovarian
K-562 leukemia = system: K-562 leukemia
KM12 colon = system: KM12 colon
KM20L2 colon = system: KM20L2 colon
LOX IMVI melanoma = system: LOX IMVI melanoma
LXFL 529 NSCLC = system: LXFL 529 NSCLC
M14 melanoma = system: M14 melanoma
M19-MEL melanoma = system: M19-MEL melanoma
MALME-3M melanoma = system: MALME-3M melanoma
MOLT-4 leukemia = system: MOLT-4 leukemia
NCI-H226 lung = system: NCI-H226 lung
NCI-H23 lung = system: NCI-H23 lung
NCI-H460 lung = system: NCI-H460 lung
NCI-H522 lung = system: NCI-H522 lung
OVCAR-3 ovarian = system: OVCAR-3 ovarian
OVCAR-4 ovarian = system: OVCAR-4 ovarian
OVCAR-5 ovarian = system: OVCAR-5 ovarian
OVCAR-8 ovarian = system: OVCAR-8 ovarian
RPMI-8226 leukemia = system: RPMI-8226 leukemia
RXF 393 renal = system: RXF 393 renal
RXF-631 renal = system: RXF-631 renal
SF-268 CNS = system: SF-268 CNS
SF-295 CNS = system: SF-295 CNS
SF-539 CNS = system: SF-539 CNS
SK-MEL-2 melanoma = system: SK-MEL-2 melanoma
SK-MEL-28 melanoma = system: SK-MEL-28 melanoma
SK-MEL-5 melanoma = system: SK-MEL-5 melanoma
SK-OV-3 ovarian = system: SK-OV-3 ovarian
SN12C renal = system: SN12C renal
SNB-19 CNS = system: SNB-19 CNS
SNB-75 CNS = system: SNB-75 CNS
SNB-78 CNS = system: SNB-78 CNS
SR leukemia = system: SR leukemia
SW-620 colon = system: SW-620 colon
TK-10 renal = system: TK-10 renal
U251 CNS = system: U251 CNS
UACC-257 melanoma = system: UACC-257 melanoma
UACC-62 melanoma = system: UACC-62 melanoma
UO-31 renal = system: UO-31 renal
XF 498 CNS = system: XF 498 CNS

O=C1c2cccc3cc([N+](=O)[O-])cc(c23)C(=O)N1NC1=NCCN1
TGI (786-0 renal): > 100 µM
TGI (A498 renal): > 100 µM
TGI (A549 NSCLC): > 100 µM
TGI (ACHN renal): > 100 µM
TGI (CAKI-1 renal): > 100 µM
TGI (CCRF-CEM leukemia): > 100 µM
TGI (COLO 205 colon): > 100 µM
TGI (DLD-1 colon): > 100 µM
TGI (DMS 114 small cell lung): > 100 µM
TGI (DMS 273 small cell lung): > 100 µM
TGI (EKVX NSCLC): > 100 µM
TGI (HCC-2998 colon): > 100 µM
TGI (HCT-116 colon): > 100 µM
TGI (HCT-15 colon): > 100 µM
TGI (HL-60(TB) leukemia): > 100 µM
TGI (HOP-18 NSCLC): > 100 µM
TGI (HOP-62 NSCLC): > 100 µM
TGI (HOP-92 NSCLC): > 100 µM
TGI (HT29 colon): > 100 µM
TGI (IGROV1 ovarian): > 100 µM
TGI (K-562 leukemia): > 100 µM
TGI (KM12 colon): > 100 µM
TGI (KM20L2 colon): > 100 µM
TGI (LOX IMVI melanoma): > 100 µM
TGI (LXFL 529 NSCLC): > 100 µM
TGI (M14 melanoma): > 100 µM
TGI (M19-MEL melanoma): > 100 µM
TGI (MALME-3M melanoma): > 100 µM
TGI (MOLT-4 leukemia): > 100 µM
TGI (NCI-H226 lung): > 100 µM
TGI (NCI-H23 lung): > 100 µM
TGI (NCI-H460 lung): > 100 µM
TGI (NCI-H522 lung): > 100 µM
TGI (OVCAR-3 ovarian): > 100 µM
TGI (OVCAR-4 ovarian): > 100 µM
TGI (OVCAR-5 ovarian): > 100 µM
TGI (OVCAR-8 ovarian): > 100 µM
TGI (RPMI-8226 leukemia): > 100 µM
TGI (RXF 393 renal): > 100 µM
TGI (RXF-631 renal): > 100 µM
TGI (SF-268 CNS): > 100 µM
TGI (SF-295 CNS): > 100 µM
TGI (SF-539 CNS): > 100 µM
TGI (SK-MEL-2 melanoma): > 100 µM
TGI (SK-MEL-28 melanoma): > 100 µM
TGI (SK-MEL-5 melanoma): > 100 µM
TGI (SK-OV-3 ovarian): > 100 µM
TGI (SN12C renal): > 100 µM
TGI (SNB-19 CNS): > 100 µM
TGI (SNB-75 CNS): > 100 µM
TGI (SNB-78 CNS): > 100 µM
TGI (SR leukemia): > 100 µM
TGI (SW-620 colon): > 100 µM
TGI (TK-10 renal): > 100 µM
TGI (U251 CNS): > 100 µM
TGI (UACC-257 melanoma): > 100 µM
TGI (UACC-62 melanoma): > 100 µM
TGI (UO-31 renal): > 100 µM
TGI (XF 498 CNS): > 100 µM

Cc1c(C(=O)CC(=O)C(=O)Nc2c(C(C)C)cccc2C(C)C)[n+](=O)c2ccccc2n1[O-]
TGI (786-0 renal): 22.7 µM
TGI (A498 renal): 49.6 µM
TGI (A549 NSCLC): 32.3 µM
TGI (ACHN renal): 15.3 µM
TGI (CAKI-1 renal): 43 µM
TGI (CCRF-CEM leukemia): 7.84 µM
TGI (COLO 205 colon): 15.2 µM
TGI (DMS 114 small cell lung): 6.41 µM
TGI (DMS 273 small cell lung): 12.1 µM
TGI (EKVX NSCLC): 29 µM
TGI (HCC-2998 colon): 16.6 µM
TGI (HCT-116 colon): 9.1 µM
TGI (HCT-15 colon): 8.43 µM
TGI (HL-60(TB) leukemia): 6.91 µM
TGI (HOP-62 NSCLC): 59.3 µM
TGI (HOP-92 NSCLC): 35.1 µM
TGI (HT29 colon): 13.9 µM
TGI (IGROV1 ovarian): 11.4 µM
TGI (K-562 leukemia): 31.1 µM
TGI (KM12 colon): 15.7 µM
TGI (KM20L2 colon): 15.9 µM
TGI (LOX IMVI melanoma): 12.9 µM
TGI (LXFL 529 NSCLC): 23.4 µM
TGI (M14 melanoma): 10.8 µM
TGI (M19-MEL melanoma): 4.87 µM
TGI (MALME-3M melanoma): 18.8 µM
TGI (MOLT-4 leukemia): 8.2 µM
TGI (NCI-H226 lung): 54.5 µM
TGI (NCI-H23 lung): 34 µM
TGI (NCI-H460 lung): 7.02 µM
TGI (NCI-H522 lung): 5.83 µM
TGI (OVCAR-3 ovarian): 5.29 µM
TGI (OVCAR-4 ovarian): 15.5 µM
TGI (OVCAR-5 ovarian): 35.6 µM
TGI (OVCAR-8 ovarian): 7.38 µM
TGI (RPMI-8226 leukemia): 15.4 µM
TGI (RXF 393 renal): 38.9 µM
TGI (RXF-631 renal): 14.4 µM
TGI (SF-268 CNS): 25.2 µM
TGI (SF-295 CNS): 29.1 µM
TGI (SF-539 CNS): 17.5 µM
TGI (SK-MEL-2 melanoma): 28.4 µM
TGI (SK-MEL-28 melanoma): 48.3 µM
TGI (SK-MEL-5 melanoma): 24.4 µM
TGI (SK-OV-3 ovarian): 40.1 µM
TGI (SN12C renal): 12.2 µM
TGI (SNB-19 CNS): 37.9 µM
TGI (SNB-75 CNS): 31.4 µM
TGI (SNB-78 CNS): 41.3 µM
TGI (SW-620 colon): 13.2 µM
TGI (TK-10 renal): 60.2 µM
TGI (U251 CNS): 10.7 µM
TGI (UACC-257 melanoma): 12.6 µM
TGI (UACC-62 melanoma): 22.3 µM
TGI (UO-31 renal): 31.4 µM
TGI (XF 498 CNS): 15 µM

O=C(N/C(=C\c1ccccc1[N+](=O)[O-])c1nc2ccccc2[nH]1)c1ccccc1
TGI (CAKI-1 renal): > 100 µM
TGI (CCRF-CEM leukemia): > 100 µM
TGI (COLO 205 colon): > 100 µM
TGI (DLD-1 colon): > 100 µM
TGI (DMS 273 small cell lung): > 100 µM
TGI (HCC-2998 colon): > 100 µM
TGI (HCT-15 colon): > 100 µM
TGI (HOP-92 NSCLC): > 100 µM
TGI (HT29 colon): > 100 µM
TGI (IGROV1 ovarian): > 100 µM
TGI (K-562 leukemia): > 100 µM
TGI (KM12 colon): > 100 µM
TGI (KM20L2 colon): > 100 µM
TGI (LXFL 529 NSCLC): > 100 µM
TGI (M14 melanoma): > 100 µM
TGI (M19-MEL melanoma): > 100 µM
TGI (MALME-3M melanoma): > 100 µM
TGI (MOLT-4 leukemia): > 100 µM
TGI (NCI-H23 lung): > 100 µM
TGI (NCI-H522 lung): > 100 µM
TGI (OVCAR-3 ovarian): > 100 µM
TGI (OVCAR-4 ovarian): > 100 µM
TGI (OVCAR-5 ovarian): > 100 µM
TGI (OVCAR-8 ovarian): > 100 µM
TGI (RXF 393 renal): > 100 µM
TGI (RXF-631 renal): > 100 µM
TGI (SF-295 CNS): > 100 µM
TGI (SK-MEL-2 melanoma): > 100 µM
TGI (SK-MEL-28 melanoma): > 100 µM
TGI (SK-MEL-5 melanoma): > 100 µM
TGI (SK-OV-3 ovarian): > 100 µM
TGI (SN12C renal): > 100 µM
TGI (SNB-19 CNS): > 100 µM
TGI (SNB-78 CNS): > 100 µM
TGI (SR leukemia): > 100 µM
TGI (SW-620 colon): > 100 µM
TGI (TK-10 renal): > 100 µM
TGI (U251 CNS): > 100 µM
TGI (UACC-62 melanoma): > 100 µM
TGI (UO-31 renal): > 100 µM
TGI (XF 498 CNS): > 100 µM

CC1(C)OC(=O)[C@@](C)([C@H](O)c2ccccc2)O1
TGI (786-0 renal): > 100 µM
TGI (A498 renal): > 100 µM
TGI (A549 NSCLC): > 100 µM
TGI (ACHN renal): > 100 µM
TGI (CAKI-1 renal): > 100 µM
TGI (CCRF-CEM leukemia): > 100 µM
TGI (DLD-1 colon): > 100 µM
TGI (DMS 114 small cell lung): > 100 µM
TGI (DMS 273 small cell lung): > 100 µM
TGI (EKVX NSCLC): > 100 µM
TGI (HCC-2998 colon): > 100 µM
TGI (HCT-116 colon): > 100 µM
TGI (HL-60(TB) leukemia): > 100 µM
TGI (HOP-62 NSCLC): > 100 µM
TGI (HOP-92 NSCLC): > 100 µM
TGI (HT29 colon): > 100 µM
TGI (IGROV1 ovarian): > 100 µM
TGI (K-562 leukemia): > 100 µM
TGI (KM12 colon): > 100 µM
TGI (KM20L2 colon): > 100 µM
TGI (LXFL 529 NSCLC): > 100 µM
TGI (M14 melanoma): > 100 µM
TGI (M19-MEL melanoma): > 100 µM
TGI (MALME-3M melanoma): > 100 µM
TGI (MOLT-4 leukemia): > 100 µM
TGI (NCI-H226 lung): > 100 µM
TGI (NCI-H23 lung): > 100 µM
TGI (NCI-H460 lung): > 100 µM
TGI (NCI-H522 lung): > 100 µM
TGI (OVCAR-3 ovarian): > 100 µM
TGI (OVCAR-4 ovarian): > 100 µM
TGI (OVCAR-8 ovarian): > 100 µM
TGI (RXF 393 renal): > 100 µM
TGI (RXF-631 renal): > 100 µM
TGI (SF-268 CNS): > 100 µM
TGI (SF-295 CNS): > 100 µM
TGI (SF-539 CNS): > 100 µM
TGI (SK-MEL-2 melanoma): > 100 µM
TGI (SK-MEL-5 melanoma): > 100 µM
TGI (SK-OV-3 ovarian): > 100 µM
TGI (SN12C renal): > 100 µM
TGI (SNB-19 CNS): > 100 µM
TGI (SNB-75 CNS): > 100 µM
TGI (SNB-78 CNS): > 100 µM
TGI (SR leukemia): > 100 µM
TGI (SW-620 colon): > 100 µM
TGI (TK-10 renal): > 100 µM
TGI (U251 CNS): > 100 µM
TGI (UACC-257 melanoma): > 100 µM
TGI (UACC-62 melanoma): > 100 µM
TGI (UO-31 renal): > 100 µM
TGI (XF 498 CNS): > 100 µM
